Assay [1] concerns the target 5-hydroxytryptamine receptor 2B (Homo sapiens, UniProt P41595). The assay can be described thus: Agonist activity at human 5HT2B receptor expressed in HEK293 cells assessed as calcium flux by FLIPR assay. In general terms: Calcium flux is commonly read through the fluorescence of an indicator in the cells.
The target in assay [2] is T1, 5-hydroxytryptamine receptor 2C (Homo sapiens, UniProt P28335).
T1 sequence (P28335 whole entry): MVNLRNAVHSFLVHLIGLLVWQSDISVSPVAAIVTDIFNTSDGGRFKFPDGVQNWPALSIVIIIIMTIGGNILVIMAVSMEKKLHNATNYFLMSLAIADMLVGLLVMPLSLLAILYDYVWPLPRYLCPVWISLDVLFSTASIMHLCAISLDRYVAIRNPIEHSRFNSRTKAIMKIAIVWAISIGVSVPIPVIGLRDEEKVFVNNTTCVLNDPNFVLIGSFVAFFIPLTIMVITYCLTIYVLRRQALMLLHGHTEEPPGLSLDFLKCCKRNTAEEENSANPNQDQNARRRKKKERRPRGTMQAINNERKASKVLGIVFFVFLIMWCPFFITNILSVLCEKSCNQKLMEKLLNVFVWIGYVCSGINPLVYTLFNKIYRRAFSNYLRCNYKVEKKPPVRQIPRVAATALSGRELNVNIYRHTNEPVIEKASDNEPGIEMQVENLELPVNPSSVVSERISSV
Briefly: Agonist activity at human 5HT2C receptor expressed in HEK293 cells assessed as calcium flux by FLIPR assay.

The target of assay [3] is 5-hydroxytryptamine receptor 2A (Homo sapiens, UniProt P28223). The assay can be described thus: Agonist activity at human 5HT2A receptor expressed in HEK293 cells assessed as calcium flux by FLIPR assay.
Sequence of 5-hydroxytryptamine receptor 2A (P28223 whole entry): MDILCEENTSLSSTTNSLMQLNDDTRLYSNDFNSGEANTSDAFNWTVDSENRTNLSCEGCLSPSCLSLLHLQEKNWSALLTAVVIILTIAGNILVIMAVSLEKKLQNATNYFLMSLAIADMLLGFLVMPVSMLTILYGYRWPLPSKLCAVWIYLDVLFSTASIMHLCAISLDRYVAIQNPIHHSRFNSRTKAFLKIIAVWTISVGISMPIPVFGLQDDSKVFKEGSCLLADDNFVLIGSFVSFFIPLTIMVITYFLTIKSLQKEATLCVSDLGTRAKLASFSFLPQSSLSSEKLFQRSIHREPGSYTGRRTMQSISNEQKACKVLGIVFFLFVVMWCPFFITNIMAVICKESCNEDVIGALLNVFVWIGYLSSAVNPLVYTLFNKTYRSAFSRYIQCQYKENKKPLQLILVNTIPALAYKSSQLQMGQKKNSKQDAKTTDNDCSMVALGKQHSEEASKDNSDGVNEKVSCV

Where a name gives a salt, the structure may show the parent alone. Some results are limits rather than exact numbers.

Sequence of 5-hydroxytryptamine receptor 2B (P41595 whole entry): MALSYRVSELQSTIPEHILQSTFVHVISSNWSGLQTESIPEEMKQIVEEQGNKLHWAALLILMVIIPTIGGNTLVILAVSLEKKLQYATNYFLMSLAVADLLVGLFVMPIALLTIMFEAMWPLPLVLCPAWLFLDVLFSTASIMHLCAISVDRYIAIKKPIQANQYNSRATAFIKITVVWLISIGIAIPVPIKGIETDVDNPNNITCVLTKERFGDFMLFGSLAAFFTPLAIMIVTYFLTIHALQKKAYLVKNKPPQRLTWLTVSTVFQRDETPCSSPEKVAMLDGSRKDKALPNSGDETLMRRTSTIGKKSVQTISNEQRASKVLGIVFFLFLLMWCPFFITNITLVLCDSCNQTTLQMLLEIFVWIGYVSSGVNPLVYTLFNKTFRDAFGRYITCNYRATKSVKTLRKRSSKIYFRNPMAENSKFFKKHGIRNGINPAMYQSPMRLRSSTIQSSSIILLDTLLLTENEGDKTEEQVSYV

`NC[C@H]1C[C@H]1c1ccccc1` (racemic) [(+/-)-Cis-(2-Phenylcyclopropyl)methylamineHydrochloride]: the concentration for a half-maximal effect (EC50) (usually the concentration giving half of the maximal effect) is > 10 µM in assay [1] and 3.02 µM in assay [2].
In the case of `NC[C@H]1C[C@@H]1c1ccc2ccccc2c1` (relative stereo) [trans-(2-Naphthalen-2-ylcyclopropyl)methylamine Hydrochloride], the values for the EC50 in assay [1] and in assay [2] were 0.51 µM and 2.9 µM, respectively.
As to `c1ccc(CNC[C@H]2C[C@@H]2c2ccccc2)cc1` (relative stereo) [trans-N-Benzyl-(2-phenylcyclopropylmethyl)amine], the EC50 in assay [2] was 5.7 µM.
For the molecule `CNC[C@H]1C[C@@H]1c1ccccc1` (relative stereo) [trans-N-Methyl-(2-phenylcyclopropylmethyl)amine], the EC50 in assay [1] is > 10 µM; in assay [2] it was 0.634 µM.
Regarding `NC[C@H]1C[C@@H]1c1cccc(Cl)c1Cl` (relative stereo) [trans-[2-(2,3-Dichlorophenyl)cyclopropyl]methylamine Hydrochloride], the figures for the half-maximal effective concentration (EC50) in assay [1], in assay [3] and in assay [2] were 0.014 µM, 0.349 µM and 0.011 µM, respectively.
For `NC[C@H]1C[C@@H]1c1cccc(F)c1F` (relative stereo) [trans-[2-(2,3-Difluorophenyl)cyclopropyl]methylamine Hydrochloride], the EC50 is 0.366 µM in assay [1], > 5 µM in assay [3] and 0.099 µM in assay [2].
Turning to `Cc1cccc([C@H]2C[C@@H]2CN)c1C` (relative stereo) [trans-[2-(2,3-Dimethylphenyl)cyclopropyl]methylamine Hydrochloride], the figures for the EC50 in assay [1], in assay [3] and in assay [2] were 0.0084 µM, 0.36 µM and 0.007 µM, respectively.
Consider `NC[C@H]1C[C@@H]1c1ccc(Cl)cc1Cl` (relative stereo) [trans-[2-(2,4-Dichlorophenyl)cyclopropyl]methylamine Hydrochloride], for which the EC50 worked out at 0.083 µM in assay [1], 0.051 µM in assay [3] and 0.018 µM in assay [2].
For `NC[C@H]1C[C@@H]1c1c(F)cccc1F` (relative stereo) [trans-[2-(2,6-Difluorophenyl)cyclopropyl]methylamine Hydrochloride], the EC50 in assay [1] is 3.34 µM; in assay [3] it was > 1 µM; in assay [2] it was 0.087 µM.
Take `Cc1ccc([C@H]2C[C@@H]2CN)c(Br)c1` (relative stereo) [trans-[2-(2-Bromo-4-methylphenyl)cyclopropyl]methylamine Hydrochloride]: the EC50 in assay [1] amounted to 0.116 µM; in assay [3], 0.465 µM; in assay [2], 0.097 µM.
`Cc1cccc(Cl)c1[C@H]1C[C@@H]1CN` (relative stereo) [trans-[2-(2-Chloro-6-methylphenyl)cyclopropyl]methylamine Hydrochloride]: the half-maximal effective concentration (EC50) was 0.007 µM in assay [1], 0.726 µM in assay [3] and 0.0035 µM in assay [2].
With `NC[C@H]1C[C@@H]1c1ccccc1Cl` (relative stereo) [trans-[2-(2-Chlorophenyl)cyclopropyl]methylamine Hydrochloride], the EC50 in assay [1] stood at 0.032 µM; in assay [3] it was 0.168 µM; in assay [2], 0.0051 µM.
As for `NC[C@H]1C[C@@H]1c1ccccc1O` (relative stereo) [trans-[2-(2-Hydroxyphenyl)cyclopropyl]methylamine Hydrochloride], the EC50 worked out at 0.492 µM in assay [1], 0.513 µM in assay [3] and 0.161 µM in assay [2].
For the molecule `COc1ccccc1[C@H]1C[C@@H]1CN` (relative stereo) [trans-[2-(2-Methoxyphenyl)cyclopropyl]methylamine Hydrochloride], the results for the concentration for a half-maximal effect (EC50) in assay [1], in assay [3] and in assay [2] were 0.199 µM, 2.17 µM and 0.026 µM, respectively.
On to `Cc1ccccc1[C@H]1C[C@@H]1CN` (relative stereo) [trans-[2-(2-Methylphenyl)cyclopropyl]methylamine Hydrochloride], for which the results for the 50% effective concentration (EC50) in assay [1], in assay [3] and in assay [2] were 0.053 µM, 1.61 µM and 0.023 µM, respectively.
As for `NC[C@H]1C[C@@H]1c1ccccc1C(F)(F)F` (relative stereo) [trans-[2-(2-Trifluoromethylphenyl)cyclopropyl]methylamine Hydrochloride], the EC50 in assay [1] was found to be 0.35 µM; in assay [2] it was 0.049 µM.
Take `NC[C@H]1C[C@@H]1c1ccc(F)c(F)c1` (relative stereo) [trans-[2-(3,4-Difluorophenyl)cyclopropyl]methylamine Hydrochloride]: the concentration giving a half-maximal response (EC50) was determined as 0.028 µM in assay [1], 0.578 µM in assay [3] and 0.009 µM in assay [2].
On to `Cc1ccc([C@H]2C[C@@H]2CN)cc1C` (relative stereo) [trans-[2-(3,4-Dimethylphenyl)cyclopropyl]methylamine Hydrochloride], for which the results for the EC50 in assay [1], in assay [3] and in assay [2] were 0.012 µM, 2.39 µM and 0.035 µM, respectively.
On the same counts, the results for `NC[C@H]1C[C@@H]1c1cccc(Br)c1` (relative stereo) [trans-[2-(3-Bromophenyl)cyclopropyl]methylamine Hydrochloride] are 0.141 µM, 1.68 µM and 0.014 µM.
Consider `NC[C@H]1C[C@@H]1c1cccc(Cl)c1` (relative stereo) [trans-[2-(3-Chlorophenyl)cyclopropyl]methylamine Hydrochloride], for which the EC50 in assay [1] is 0.059 µM; in assay [3] it was 1.89 µM; in assay [2], 0.01 µM.
Regarding `NC[C@H]1C[C@@H]1c1cccc(F)c1` (relative stereo) [trans-[2-(3-Fluorophenyl)cyclopropyl]methylamine Hydrochloride], the EC50 amounted to 0.0036 µM in assay [1], 0.437 µM in assay [3] and 0.0033 µM in assay [2].
The matching figures for `NC[C@H]1C[C@@H]1c1cccc(O)c1` (relative stereo) [trans-[2-(3-Hydroxyphenyl)cyclopropyl]methylamine Hydrochloride]: 0.0055 µM, 0.247 µM and 0.0033 µM.
Regarding `COc1cccc([C@H]2C[C@@H]2CN)c1` (relative stereo) [trans-[2-(3-Methoxyphenyl)cyclopropyl]methylamine Hydrochloride], the values for the EC50 in assay [1], in assay [3] and in assay [2] were 0.075 µM, 0.613 µM and 0.016 µM, respectively.
Consider `NC[C@H]1C[C@@H]1c1cccc(C(F)(F)F)c1` (relative stereo) [trans-[2-(3-Trifluoromethylphenyl)cyclopropyl]methylamine Hydrochloride], for which the figures for the half-maximal effective concentration (EC50) in assay [1], in assay [3] and in assay [2] were 0.077 µM, 1.49 µM and 0.03 µM, respectively.
Take `COc1ccc([C@H]2C[C@@H]2CN)cc1` (relative stereo) [trans-[2-(4-Methoxyphenyl)cyclopropyl]methylamine Hydrochloride]: in assay [2], the EC50 is 0.902 µM.
On to `NC[C@H]1C[C@@H]1c1ccc(C(F)(F)F)cc1` (relative stereo) [trans-[2-(4-Trifluoromethylphenyl)cyclopropyl]methylamine Hydrochloride], for which the EC50 in assay [1] is > 1 µM; in assay [2], 0.779 µM.
Regarding `NC[C@H]1C[C@@H]1c1ccccc1F` [trans-[2-(2-Fluorophenyl)cyclopropyl]methylamine Hydrochloride], the EC50 in assay [1] amounted to 0.069 µM; in assay [2], 0.029 µM.

These data come from BindingDB's records for doi:10.1021/jm801354e (University of Illinois At Chicago, 2009).
